Test results from patent US20240067631A1, “PYRAZOLE DERIVATIVES USEFUL AS NAMPT MODULATORS” (Cytokinetics, Inc., priority 2020, published 2024).

Molecular target: human NAMPT (Homo sapiens (Human), UniProt P43490)
Test: Human recombinant enzyme assay (NMN fluorescence biochemical assay)
Conditions: 6 nM human NAMPT, 60 min; for AC1.4 Human: concentration of compound that generates 40% higher activity over basal; for EC50: concentration that gives half-maximal activation
Summary of the method: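 Recombinant human NAMPT (6 nM) with 2.5 mM ATP, […] PRPP and […] nicotinamide in HEPES pH 7.2 with DTT, CHAPS, NaCl, MgCl2; 60 min at ambient temperature. NMN derivatised with acetophenone/KOH/formic acid, fluorescence read at 355/460 nm. AC1.4 (40% above basal) and EC50 reported.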

Sequence of human NAMPT (P43490 whole entry): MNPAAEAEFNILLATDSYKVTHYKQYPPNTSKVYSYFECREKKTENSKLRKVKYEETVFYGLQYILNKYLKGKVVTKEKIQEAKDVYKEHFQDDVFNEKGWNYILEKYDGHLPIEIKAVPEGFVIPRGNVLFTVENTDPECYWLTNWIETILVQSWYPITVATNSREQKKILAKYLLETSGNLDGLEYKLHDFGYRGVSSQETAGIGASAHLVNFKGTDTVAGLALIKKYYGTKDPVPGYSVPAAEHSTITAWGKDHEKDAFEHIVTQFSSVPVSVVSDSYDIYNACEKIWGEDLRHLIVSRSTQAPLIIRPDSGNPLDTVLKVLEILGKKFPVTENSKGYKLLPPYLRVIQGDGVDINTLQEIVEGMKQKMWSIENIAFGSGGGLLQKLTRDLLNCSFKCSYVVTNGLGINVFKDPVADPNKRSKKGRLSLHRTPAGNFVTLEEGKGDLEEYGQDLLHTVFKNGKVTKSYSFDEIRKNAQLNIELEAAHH

| SMILES | AC1.4 Human [µM] | EC50 [µM] |
| --- | --- | --- |
| Cc1nc(C(=O)N2CCC(C(F)(F)F)CC2)nc(NCCc2cn[nH]c2)c1C [Compound 119, (4-((2-(1H-pyrazol-4-yl)ethyl)amino)-5,6-dimethylpyrimidin-2-yl)(4-(trifluoromethyl)piperidin-1-yl)methanone] | 32.854 | 47.2 |
| Cc1nc(C(=O)NC(c2cccnc2)C(F)(F)F)nc(NCCc2cn[nH]c2)c1C (stereo not drawn) [Compound 136, 4-((2-(1H-pyrazol-4-yl)ethyl)amino)-5,6-dimethyl-N-(2,2,2-trifluoro-1-(pyridin-3-yl)ethyl)pyrimidine-2-carboxamide] | 3.778 | 50.2 |
| COC[C@@H](NC(=O)c1nc(C)c(C)c(NCCc2cn[nH]c2)n1)c1cccc(F)c1 [Compound 82, (S)-4-((2-(1H-pyrazol-4-yl)ethyl)amino)-N-(1-(3-fluorophenyl)-2-methoxyethyl)-5,6-dimethylpyrimidine-2-carboxamide] | 0.966 | 3.99 |
| Cc1nc(C(=O)NC(c2ccccc2)c2nccn2C)nc(NCCc2cn[nH]c2)c1C (stereo not drawn) [Compound 40, 4-((2-(1H-pyrazol-4-yl)ethyl)amino)-5,6-dimethyl-N-((1-methyl-1H-imidazol-2-yl)(phenyl)methyl)pyrimidine-2-carboxamide] | 0.214 | 1.27 |
| Cc1nc(C(=O)N2CC(C)(c3ccccc3)C2)nc(NCCc2cn[nH]c2)c1C [Compound 89, (4-((2-(1H-pyrazol-4-yl)ethyl)amino)-5,6-dimethylpyrimidin-2-yl)(3-methyl-3-phenylazetidin-1-yl)methanone] | 4.9195 | 37.3 |
| Cc1nc(C(=O)N[C@H](C)c2cccc(F)c2)nc(NCCc2cn[nH]c2)c1C [Compound 39, (R)-4-((2-(1H-pyrazol-4-yl)ethyl)amino)-N-(1-(3-fluorophenyl)ethyl)-5,6-dimethylpyrimidine-2-carboxamide] | 0.21 | 1.51 |
| Cc1nc(C(=O)N2CC(F)(F)C2)nc(NCCc2cn[nH]c2)c1C [Compound 91, (4-((2-(1H-pyrazol-4-yl)ethyl)amino)-5,6-dimethylpyrimidin-2-yl)(3,3-difluoroazetidin-1-yl)methanone] | 0.9345 | 7.76 |
| Cc1nc(C(=O)N[C@@H](C)c2cccc(F)n2)nc(NCCc2cn[nH]c2)c1C [Compound 73, (S)-4-((2-(1H-pyrazol-4-yl)ethyl)amino)-N-(1-(6-fluoropyridin-2-yl)ethyl)-5,6-dimethylpyrimidine-2-carboxamide] | 0.6455 | 3.24 |
| Cc1nc(C(=O)N2CC(O)(Cc3ccccc3)C2)nc(NCCc2cn[nH]c2)c1C [Compound 60] | 0.4085 | 3.75 |
| Cc1nc(C(=O)NCC(C)(O)c2ccccc2)nc(NCCc2cn[nH]c2)c1C (stereo not drawn) [Compound 104, 4-((2-(1H-pyrazol-4-yl)ethyl)amino)-N-(2-hydroxy-2-phenylpropyl)-5,6-dimethylpyrimidine-2-carboxamide] | 1.6495 | 11.3 |
| Cc1nc(C(=O)N2CCC[C@@H]2c2ccccc2F)nc(NCCc2cn[nH]c2)c1C [Compound 54, (R)-(4-((2-(1H-pyrazol-4-yl)ethyl)amino)-5,6-dimethylpyrimidin-2-yl)(2-(2-fluorophenyl)pyrrolidin-1-yl)methanone] | 0.35 | 2.37 |
| Cc1nc(C(=O)NCc2ccncc2)nc(NCCc2cn[nH]c2)c1C [Compound 133, 4-((2-(1H-pyrazol-4-yl)ethyl)amino)-5,6-dimethyl-N-(pyridin-4-ylmethyl)pyrimidine-2-carboxamide] | 3.5315 | 28.9 |
| Cc1nc(C(=O)N2CCC(O)(c3ccccc3)CC2)nc(NCCc2cn[nH]c2)c1C [Compound 34, (4-((2-(1H-pyrazol-4-yl)ethyl)amino)-5,6-dimethylpyrimidin-2-yl)(4-hydroxy-4-phenylpiperidin-1-yl)methanone] | 2.839 | 17.7 |
| Cc1ccc(C(C)NC(=O)c2nc(C)c(C)c(NCCc3cn[nH]c3)n2)s1 (stereo not drawn) [Compound 130, 4-((2-(1H-pyrazol-4-yl)ethyl)amino)-5,6-dimethyl-N-(1-(5-methylthiophen-2-yl)ethyl)pyrimidine-2-carboxamide] | 3.2975 | 41 |
| Cc1nc(C(=O)NCc2coc3ccccc23)nc(NCCc2cn[nH]c2)c1C [Compound 58, 4-((2-(1H-pyrazol-4-yl)ethyl)amino)-N-(benzofuran-3-ylmethyl)-5,6-dimethylpyrimidine-2-carboxamide] | 0.406 | 0.788 |
| Cc1nc(C(=O)N2CC(C)(O)C2)nc(NCCc2cn[nH]c2)c1C [Compound 125, (4-((2-(1H-pyrazol-4-yl)ethyl)amino)-5,6-dimethylpyrimidin-2-yl)(3-hydroxy-3-methylazetidin-1-yl)methanone] | 4.313 | 22 |
| Cc1nc(C(=O)N(C)[C@H](C)c2ccccc2Cl)nc(NCCc2cn[nH]c2)c1C [Compound 53, (R)-4-((2-(1H-pyrazol-4-yl)ethyl)amino)-N-(1-(2-chlorophenyl)ethyl)-N,5,6-trimethylpyrimidine-2-carboxamide] | 0.3335 | 2.6 |
| Cc1nc(C(=O)NCc2cccc(F)c2)nc(NCCc2cn[nH]c2)c1C [Compound 32, 4-((2-(1H-pyrazol-4-yl)ethyl)amino)-N-(3-fluorobenzyl)-5,6-dimethylpyrimidine-2-carboxamide] | 0.193 | 0.929 |
| Cc1nc(C(=O)NCCc2ccncc2F)nc(NCCc2cn[nH]c2)c1C [Compound 113, 4-((2-(1H-pyrazol-4-yl)ethyl)amino)-N-(2-(3-fluoropyridin-4-yl)ethyl)-5,6-dimethylpyrimidine-2-carboxamide] | 2.084 | 18.3 |
| Cc1nc(C(=O)NCCc2cncc(F)c2)nc(NCCc2cn[nH]c2)c1C [Compound 129, 4-((2-(1H-pyrazol-4-yl)ethyl)amino)-N-(2-(5-fluoropyridin-3-yl)ethyl)-5,6-dimethylpyrimidine-2-carboxamide] | 3.249 | 21.3 |
| Cc1nc(C(=O)Nc2ccccc2)nc(NCCc2cn[nH]c2)c1C [Compound 140, 4-((2-(1H-pyrazol-4-yl)ethyl)amino)-5,6-dimethyl-N-phenylpyrimidine-2-carboxamide] | 4.0885 | 18.4 |
| Cc1nc(C(=O)N[C@H](C)c2cncc(F)c2)nc(NCCc2cn[nH]c2)c1C [Compound 109, (R)-4-((2-(1H-pyrazol-4-yl)ethyl)amino)-N-(1-(5-fluoropyridin-3-yl)ethyl)-5,6-dimethylpyrimidine-2-carboxamide] | 1.933 | 11.2 |
| Cc1nc(C(=O)N2CCC[C@@H]2c2ccccn2)nc(NCCc2cn[nH]c2)c1C [Compound 126, (R)-(4-((2-(1H-pyrazol-4-yl)ethyl)amino)-5,6-dimethylpyrimidin-2-yl)(2-(pyridin-2-yl)pyrrolidin-1-yl)methanone] | 3.1455 | 13.4 |
| Cc1nc(C(=O)N2CCC(F)(F)CC2c2ccccc2)nc(NCCc2cn[nH]c2)c1C (stereo not drawn) [Compound 28, (4-((2-(1H-pyrazol-4-yl)ethyl)amino)-5,6-dimethylpyrimidin-2-yl)(4,4-difluoro-2-phenylpiperidin-1-yl)methanone] | 0.144 | 1.36 |
